In patent publication US20240390526A1, “NEAR-INFRARED FLUORESCENT DYE-LOADED POLYMER MICROSPHERES FOR LABELLING LESIONS, AND FORMULATION THEREOF” (National Cancer Center, priority 2022, published 2024) one finds emission peak data, which are given here for four compounds.

The data set can be described thus: Fluorescence spectrum / intensity of dye solutions, dye complexes and microsphere dispersions (multi-function microplate reader, λex=730 nm). Type of data set: physicochemical. Particulars: aqueous solution. The protocol:
0.5 mg of indocyanine green (Dianogreen Injection) (ICG, Jeil Pharmaceutical Co., Ltd.) as a near-infrared fluorescent dye was dissolved in 1 mL of distilled water, and then diluted with distilled water to prepare an indocyanine green solution at a concentration of 30 μM. For the indocyanine green/human serum albumin (HSA, SK Plasma) complex for comparison of fluorescence signals with the indocyanine green solution, 0.5 mg of indocyanine green powder was dissolved in a mixed solution of 0.214 mL of human serum albumin solution (20% concentration) and 0.786 mL of distilled water, and then diluted with distilled water to prepare an indocyanine green/human serum albumin complex (ICG-HSA) at a concentration of 30 μM. To compare fluorescence spectra, 200 μL of each prepared solution was aliquoted and placed in a 96-well plate, and the fluorescence spectrum (λex=730 nm) was measured using a multi-function microplate reader (SPARK, Tecan Trading AG, Zurich, Switzerland).
(§1) To compare fluorescence signals of the prepared the microspheres and the indocyanine green/human serum albumin complex, the same concentration of indocyanxhine green complex solution and dispersion of microparticles were prepared. […] Using the information on the content of indocyanine green in PLGA microspheres evaluated by the quantification, a dispersion was prepared by adding indocyanine green to 0.3 mL of distilled water so that the concentration was 30 μM. To compare fluorescence spectra, 200 μL of each of the prepared solution and dispersion was aliquoted and placed in a 96-well plate, and the fluorescence spectrum (λex=730 nm) was measured using a multi-function microplate reader (SPARK, Tecan Trading AG, Zurich, Switzerland).
as §1, with “To compare the fluorescence signals” for “To compare fluorescence signals”, “the prepared microspheres and” for “the prepared the microspheres and”, “multi-function microplate reader. Fluorescence images were analyzed using fluorescence imaging equipment (IVIS Lumina XR, Xenogen Corporation-Caliper, CA, USA) after putting 300μl of the same solution into a microtube (λex=780/20 nm, λem=845/40 nm). […]” for “multi-function microplate reader (SPARK, Tecan Trading AG, Zurich, Switzerland).”

The compound `C[N+]1=C(C=CC2=CC(=CC=C3N(CCCCCC(=O)[O-])c4ccc5c(S(=O)(=O)[O-])cc(S(=O)(=O)[O-])cc5c4C3(C)C)CCC2)C(C)(C)c2c1ccc1c(S(=O)(=O)O)cc(S(=O)(=O)[O-])cc21.[K+].[K+].[K+]` [Cy7.5, sulfo-cyanine7.5 carboxylic acid] registered an emission peak of 810 nm.

The compound Flamma774 carboxylic acid came in with an emission peak of 812 nm.

For the compound `CC1(C)C(/C=C/C2=C(Oc3ccc(S(=O)(=O)O)cc3)C(=C/C=C3/N(CCCCS(=O)(=O)O)c4ccc(S(=O)(=O)[O-])cc4C3(C)C)/CCC2)=[N+](CCCCCC(=O)O)c2ccc(S(=O)(=O)O)cc21` [IRDye 800CW, IRDye® 800CW carboxylate], the emission peak turned out to be 806 nm.

`C[N+]1=C(C=CC2=CC(=CC=C3N(CCCCCC(=O)O)c4ccc(S(=O)(=O)[O-])cc4C3(C)C)CCC2)C(C)(C)c2cc(S(=O)(=O)[O-])ccc21.[K+]` [Cy7, sulfo-cyanine7 carboxylic acid] displayed an emission peak of 780 nm.
